Source: patent US6296859A, “Synergistic composition comprising a compound of lipoamino acid structure and a water lily extract” (Societe d'Exploitation de Produits pour les Industries …, priority 1998, dated 2001)

What was measured:
[1] = anti-free-radical test: xanthine oxidase/xanthine, rate of reduction of cytochrome C at 550 nm; type: biochemical; conditions: test concentration 0.0062% palmitoylproline alone; 25° C.
Excerpt: The determination of the anti-free-radical effect is based on the inhibition or the decrease in the rate of reduction of cytochrome C, by adding a test molecule to the reaction medium. The superoxide anion is generated by the action of xanthine oxidase on xanthine. In the absence of a molecule capable of capturing it, it results in the reduction of cytochrome C. The formation of reduced cytochrome C is monitored by a spectrophotometer, at 550 nm in the presence (Test) and in the absence (Control) of anti-free-radical molecules.
The reaction takes place in a spectrophotometer thermostatically adjusted to 25° C. and fitted with a sample changer. All of the kinetics are carried out at least three times; the average and the standard deviation are calculated for the three values obtained. A percentage of inhibition of the rate of formation of the coloured product (corresponding to the amount of free superoxide anion) will thus be calculated for each active agent tested. […] The percentage of inhibition of the formation of the coloured product by the active agent will thus correspond to its percentage of inhibition of the superoxide anion.

[2] = molecular target: T1, human leukocytic elastase (HLE) (Homo sapiens, UniProt P08246); test: anti-elastase test: spectrophotometric hydrolysis of N-methoxysuccinyl-alanine-proline-valine-para-nitroanilide at 410 nm; type: biochemical; conditions: test concentration 0.001% palmitoylproline alone; 25° C.
T1 sequence (P08246 30-267): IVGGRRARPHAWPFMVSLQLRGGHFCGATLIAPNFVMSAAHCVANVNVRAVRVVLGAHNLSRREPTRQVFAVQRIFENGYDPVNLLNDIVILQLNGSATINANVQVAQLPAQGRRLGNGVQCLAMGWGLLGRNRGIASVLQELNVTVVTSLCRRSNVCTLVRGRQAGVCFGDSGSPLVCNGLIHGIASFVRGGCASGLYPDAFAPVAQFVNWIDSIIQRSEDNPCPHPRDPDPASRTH
Description: The reaction is carried out in a spectrophotometer, thermostatically maintained at 25° C., fitted with a sample changer. All the kinetics are carried out at least three times, the average and the standard deviation then being calculated for the three values obtained. […] A correlation thus exists between the percentage of inhibition of the formation of the coloured product by the test compound and the percentage of inhibition of human leukocytic elastase. The percentage of inhibition thus calculated is also representative of the calmant activity of the test compound.

- % of anti-free-radical inhibition [1]: 38%
- % of anti-elastase inhibition [2]: 22%
SMILES: CCCCCCCCCCCCCCCC(=O)N1CCC[C@H]1C(=O)O [Palmitoylproline, N-palmitoylproline]
